What was measured:
[1] = test system: calculated free testosterone; assay: Example 3 study in hypogonadal men: calculated serum free testosterone (ITT); type: in vivo, human
Method: FIG. 7 depicts a graph of the data of the study from Example 3 showing the calculated serum free testosterone level (ng/dL) over time for each of the treatment groups. The bars from left to right for each of the BL (baseline), 2 week, 4 week, and 6 week timepoints (the 6 week timepoint occurred 2 weeks after the discontinuation of study drug at week 4) correspond to the placebo, 100 mg, 200 mg, and 300 mg/day doses, respectively;
A randomized, double-blind, placebo controlled, parallel-group study of once-daily doses of fispemifene (100, 200, and 300 mg/day) given for 4 weeks was conducted in a population of hypogonadal men. Subjects were required to meet all of the following inclusion criteria at screening and prior to randomization to be eligible for the study:
There were 77 subjects total. The number of subjects randomized to the 100 mg fispemifene, 200 mg fispemifene, 300 mg fispemifene, and placebo arms were 21, 21, 19, and 16, respectively.
Subjects were randomly assigned to one of four treatment groups in a 1:1:1:1 ratio: • Treatment A (100 mg): fispemifene 100 mg+placebo+placebo; • Treatment B (200 mg): fispemifene 100 mg+fispemifene 100 mg+placebo; • Treatment C (300 mg): fispemifene 100 mg+fispemifene 100 mg+fispemifene 100 mg; and • Treatment D (Placebo): placebo+placebo+placebo.
Subjects took one dose (three capsules) of study medication once a day at home for 4 weeks. Capsules were to be taken in the morning immediately after breakfast, with the exception of the morning of the Week 4 visit. Capsules were not to be taken on the morning of the Week 4 visit because trough plasma levels of fispemifene were determined by a blood sample taken at this visit. Each subject was randomly assigned to treatment with one of the 3 different dose regimens of fispemifene or placebo vehicle. Each subject received a 4 week supply of study drug.
Blood samples were taken from the subjects within 1 week prior to dosing with study drug to establish baseline values; after 2 and 4 weeks of randomization; and 2 weeks after the last dose of study drug. Serum was prepared from those samples and used to determine the mean % change from baseline in total testosterone, free testosterone, SHBG (sex hormone-binding globulin), DHT (dihydrotestosterone), E2 (estradiol), LH (luteinizing hormone), FSH (follicle stimulating hormone), and inhibin B.
1. Percent change from baseline in free testosterone and calculated free testosterone at Weeks 2, 4, and 6;

SHBG = assay: Phase I repeated dose study 101-50202: serum SHBG; type: in vivo, human;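 as to Serum SHBG, Mean: SHBG concentrations in nmol/L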
From the text: Fispemifene has been studied in two phase I studies in humans—in a single dose and a repeated dose study. Effect of fispemifene on hormone levels was one main focus of the repeated dose study. The phase I repeated dose study (number 101-50202) was a randomized, double-blind, placebo-controlled 28-day dose-escalation study performed in 31 healthy, elderly men, aged 50-68 years. The main objective of the study was to investigate the tolerability, safety and pharmacokinetics of fispemifene after repeated oral doses, but the study focused also on the effects of fispemifene on serum free and total testosterone, estradiol, and other relevant hormones. The fispemifene doses 10, 30, 100 and 300 mg per day and placebo were administered once every morning as capsules containing 10 mg or 100 mg of fispemifene, or placebo.
The variables for safety and tolerability were adverse events, vital signs, 12-lead ECG, clinical laboratory evaluations, physical examination, ultrasound examinations (mammary glands) and inhibin B. For pharmacokinetics, the concentrations of fispemifene and its metabolite(s) were to be evaluated. For pharmacodynamics, serum concentrations of FSH, LH, estradiol, testosterone, SHBG, prolactin, aldosterone, cortisol and TSH before and during treatment were measured and compared with the concentrations in the placebo-group.

[2] = 100 mg/day, Week 6 (2 weeks after discontinuation)
[3] = 100 mg/day, to Week 6 (2 weeks after discontinuation)
[4] = 200 mg/day, Week 6 (2 weeks after discontinuation)
[5] = 200 mg/day, to Week 6 (2 weeks after discontinuation)
[6] = 300 mg/day, Week 6 (2 weeks after discontinuation)
[7] = 300 mg/day, to Week 6 (2 weeks after discontinuation)

SMILES: OCCOCCOc1ccc(/C(=C(/CCCl)c2ccccc2)c2ccccc2)cc1 [Fispemifene, (Z)-2-{2-[4-(4-Chloro-1,2-diphenylbut-1-enyl)phenoxy]ethoxy}ethanol]
- Calculated Free Testosterone, Max ([1]; 100 mg/day, Baseline (Visit 2)): 7.54 ng/dL
- Calculated Free Testosterone, Mean ± SD ([1]; 100 mg/day, Baseline (Visit 2)): 4.81 ± 1.368 ng/dL
- Calculated Free Testosterone, Median ([1]; 100 mg/day, Baseline (Visit 2)): 4.95 ng/dL
- Calculated Free Testosterone, Min ([1]; 100 mg/day, Baseline (Visit 2)): 2.19 ng/dL
- Calculated Free Testosterone, Max ([1]; 100 mg/day, Week 2): 10.27 ng/dL
- Calculated Free Testosterone, Mean ± SD ([1]; 100 mg/day, Week 2): 6.64 ± 1.732 ng/dL
- Calculated Free Testosterone, Median ([1]; 100 mg/day, Week 2): 6.46 ng/dL
- Calculated Free Testosterone, Min ([1]; 100 mg/day, Week 2): 4.32 ng/dL
- Calculated Free Testosterone, Max ([1]; 100 mg/day, Week 4): 9.13 ng/dL
- Calculated Free Testosterone, Mean ± SD ([1]; 100 mg/day, Week 4): 6.59 ± 1.396 ng/dL
- Calculated Free Testosterone, Median ([1]; 100 mg/day, Week 4): 6.63 ng/dL
- Calculated Free Testosterone, Min ([1]; 100 mg/day, Week 4): 4.15 ng/dL
- Calculated Free Testosterone, Max [1, 2]: 7.05 ng/dL
- Calculated Free Testosterone, Mean ± SD [1, 2]: 5.15 ± 1.057 ng/dL
- Calculated Free Testosterone, Median [1, 2]: 5.10 ng/dL
- Calculated Free Testosterone, Min [1, 2]: 2.57 ng/dL
- Calculated Free Testosterone, % Change from Baseline, Max ([1]; 100 mg/day, to Week 2): 100%
- Calculated Free Testosterone, % Change from Baseline, Median ([1]; 100 mg/day, to Week 2): 36%
- Calculated Free Testosterone, % Change from Baseline, Min ([1]; 100 mg/day, to Week 2): 8%
- Calculated Free Testosterone, % Change from Baseline, Max ([1]; 100 mg/day, to Week 4): 157%
- Calculated Free Testosterone, % Change from Baseline, Median ([1]; 100 mg/day, to Week 4): 36%
- Calculated Free Testosterone, % Change from Baseline, Max [1, 3]: 115%
- Calculated Free Testosterone, % Change from Baseline, Median [1, 3]: 8%
- Calculated Free Testosterone, Max ([1]; 200 mg/day, Baseline (Visit 2)): 7.29 ng/dL
- Calculated Free Testosterone, Mean ± SD ([1]; 200 mg/day, Baseline (Visit 2)): 4.80 ± 1.143 ng/dL
- Calculated Free Testosterone, Median ([1]; 200 mg/day, Baseline (Visit 2)): 4.70 ng/dL
- Calculated Free Testosterone, Min ([1]; 200 mg/day, Baseline (Visit 2)): 2.66 ng/dL
- Calculated Free Testosterone, Max ([1]; 200 mg/day, Week 2): 8.98 ng/dL
- Calculated Free Testosterone, Mean ± SD ([1]; 200 mg/day, Week 2): 6.37 ± 1.386 ng/dL
- Calculated Free Testosterone, Median ([1]; 200 mg/day, Week 2): 6.21 ng/dL
- Calculated Free Testosterone, Min ([1]; 200 mg/day, Week 2): 4.11 ng/dL
- Calculated Free Testosterone, Max ([1]; 200 mg/day, Week 4): 9.83 ng/dL
- Calculated Free Testosterone, Mean ± SD ([1]; 200 mg/day, Week 4): 6.64 ± 1.658 ng/dL
- Calculated Free Testosterone, Median ([1]; 200 mg/day, Week 4): 6.39 ng/dL
- Calculated Free Testosterone, Min ([1]; 200 mg/day, Week 4): 4.05 ng/dL
- Calculated Free Testosterone, Max [1, 4]: 7.81 ng/dL
- Calculated Free Testosterone, Mean ± SD [1, 4]: 5.153 ± 1.328 ng/dL
- Calculated Free Testosterone, Median [1, 4]: 4.88 ng/dL
- Calculated Free Testosterone, Min [1, 4]: 3.60 ng/dL
- Calculated Free Testosterone, % Change from Baseline, Max ([1]; 200 mg/day, to Week 2): 124%
- Calculated Free Testosterone, % Change from Baseline, Median ([1]; 200 mg/day, to Week 2): 28%
- Calculated Free Testosterone, % Change from Baseline, Min ([1]; 200 mg/day, to Week 2): 1%
- Calculated Free Testosterone, % Change from Baseline, Max ([1]; 200 mg/day, to Week 4): 112%
- Calculated Free Testosterone, % Change from Baseline, Median ([1]; 200 mg/day, to Week 4): 40%
- Calculated Free Testosterone, % Change from Baseline, Max [1, 5]: 75%
- Calculated Free Testosterone, % Change from Baseline, Median [1, 5]: 6%
- Calculated Free Testosterone, Max ([1]; 300 mg/day, Baseline (Visit 2)): 7.02 ng/dL
- Calculated Free Testosterone, Mean ± SD ([1]; 300 mg/day, Baseline (Visit 2)): 4.66 ± 1.509 ng/dL
- Calculated Free Testosterone, Median ([1]; 300 mg/day, Baseline (Visit 2)): 4.94 ng/dL
- Calculated Free Testosterone, Min ([1]; 300 mg/day, Baseline (Visit 2)): 0.23 ng/dL
- Calculated Free Testosterone, Max ([1]; 300 mg/day, Week 2): 9.79 ng/dL
- Calculated Free Testosterone, Mean ± SD ([1]; 300 mg/day, Week 2): 6.43 ± 2.152 ng/dL
- Calculated Free Testosterone, Median ([1]; 300 mg/day, Week 2): 7.25 ng/dL
- Calculated Free Testosterone, Min ([1]; 300 mg/day, Week 2): 0.14 ng/dL
- Calculated Free Testosterone, Max ([1]; 300 mg/day, Week 4): 10.31 ng/dL
- Calculated Free Testosterone, Mean ± SD ([1]; 300 mg/day, Week 4): 7.33 ± 2.589 ng/dL
- Calculated Free Testosterone, Median ([1]; 300 mg/day, Week 4): 8.40 ng/dL
- Calculated Free Testosterone, Min ([1]; 300 mg/day, Week 4): 0.10 ng/dL
- Calculated Free Testosterone, Max [1, 6]: 8.02 ng/dL
- Calculated Free Testosterone, Mean ± SD [1, 6]: 5.29 ± 1.791 ng/dL
- Calculated Free Testosterone, Median [1, 6]: 5.44 ng/dL
- Calculated Free Testosterone, Min [1, 6]: 0.22 ng/dL
- Calculated Free Testosterone, % Change from Baseline, Max ([1]; 300 mg/day, to Week 2): 83%
- Calculated Free Testosterone, % Change from Baseline, Median ([1]; 300 mg/day, to Week 2): 40%
- Calculated Free Testosterone, % Change from Baseline, Max ([1]; 300 mg/day, to Week 4): 133%
- Calculated Free Testosterone, % Change from Baseline, Median ([1]; 300 mg/day, to Week 4): 59%
- Calculated Free Testosterone, % Change from Baseline, Max [1, 7]: 65%
- Calculated Free Testosterone, % Change from Baseline, Median [1, 7]: 10%
- Serum SHBG, Mean (SHBG; 10 mg/day, Baseline): 47.7 nmol/L
- Serum SHBG, Mean (SHBG; 10 mg/day, Day 8): 46.3 nmol/L
- Serum SHBG, Mean (SHBG; 10 mg/day, Day 15): 48.2 nmol/L
- Serum SHBG, Mean (SHBG; 10 mg/day, Day 22): 50.2 nmol/L
- Serum SHBG, Mean (SHBG; 10 mg/day, Day 28): 45.2 nmol/L
- Serum SHBG, Mean (SHBG; 30 mg/day, Baseline): 34.2 nmol/L
- Serum SHBG, Mean (SHBG; 30 mg/day, Day 8): 34.2 nmol/L
- Serum SHBG, Mean (SHBG; 30 mg/day, Day 15): 37.4 nmol/L
- Serum SHBG, Mean (SHBG; 30 mg/day, Day 22): 37.2 nmol/L
- Serum SHBG, Mean (SHBG; 30 mg/day, Day 28): 36.6 nmol/L
- Serum SHBG, Mean (SHBG; 100 mg/day, Baseline): 41.7 nmol/L
- Serum SHBG, Mean (SHBG; 100 mg/day, Day 8): 47.7 nmol/L
- Serum SHBG, Mean (SHBG; 100 mg/day, Day 15): 52.0 nmol/L
- Serum SHBG, Mean (SHBG; 100 mg/day, Day 22): 55.7 nmol/L
- Serum SHBG, Mean (SHBG; 100 mg/day, Day 28): 50.8 nmol/L
- Serum SHBG, Mean (SHBG; 300 mg/day, Baseline): 50.7 nmol/L
- Serum SHBG, Mean (SHBG; 300 mg/day, Day 8): 64.2 nmol/L
- Serum SHBG, Mean (SHBG; 300 mg/day, Day 15): 66.2 nmol/L
- Serum SHBG, Mean (SHBG; 300 mg/day, Day 22): 65.2 nmol/L
- Serum SHBG, Mean (SHBG; 300 mg/day, Day 28): 58.3 nmol/L
- effect on serum concentration of SHBG (SHBG; during the 28 days of treatment): increased

From US10500166B2, “Methods for the treatment of erectile dysfunction using fispemifene” (QUATRX PHARMACEUTICALS, priority 2007, dated 2019)
